Test results published in patent US9517223B2, “Methods to treat neurodegenerative diseases” (Children's Medical Center Corporation, priority 2012, dated 2016).

What was measured:
[1] = system: ALS patient-derived motor neurons (39b); experiment: Extracellular MEA recording of spontaneous firing, SOD1 A4V ALS motor neurons; conditions: retigabine 10 μM; two additional MEAs from separate differentiations
[2] = mice, 10 mg/kg IP injection for several weeks; cited from earlier work

CCOC(=O)Nc1ccc(NCc2ccc(F)cc2)cc1N [Retigabine]
percentage of active neurons blocked (spontaneous firing) [1]: 100%
side effects [2]: without apparent side effects
